Assay results: patent US5770625A, “Butyryl-tyrosinyl spermine, analogs thereof and methods of preparing and using same” (priority 1994, dated 1998)
Read-outs that look alike come from different tables or passages of the source.

Tests used:
[1] = tested on: postsynaptic QUIS-R of locust leg muscle; assay: Antagonism of neurally-evoked twitch contraction of locust retractor unguis nerve-muscle preparation; parameters: species or system Schistocerca gregaria; settings: for effect on the neurally-evoked twitch contraction (in words): toxin 1-10 μM
Excerpt: Electrophysiological studies. The metathoracic retractor unguis nerve-muscle preparation of the locust Schistocerca gregaria was dissected and mounted in a small Perspex bath as described previously (21). The pharmacological activity on the locust nerve muscle preparation, using reduction in neurally evoked twitch amplitude as the measure of activity. Ten fractions were pharmacologically active. […] Further purification of this fraction by reverse-phase HPLC gave four peaks (FIG. 2B), the most pharmacologically was in the major peak (hatched FIG. 2B) . This fraction gave 1.1 mg of toxin as amorphous powder.
The retractor unguis muscle and its nerve were dissected from the metathoracic legs of adult, female locusts (Schistocerca gregaria) and mounted in a Perspex perfusion chamber as described by Usherwood and Machili (21) and Bateman, et al. (14). The muscle was stretched to maximal body length and attached at its tendon or apodeme to a Grass FT 10-strain gauge by a short length of nylon thread. The volume of the muscle bath was about 0.5 ml and its contents could be exchanged within 1 sec. The preparation was perfused continuously at the rate of 5-10 ml min^-1 (except during the application of toxin (see below)) with standard locust saline of the following composition (mM): NaCl, 180; KCl, 10; CaCl2, 2; Hepes, 10; buffered to pH 6.8. The retractor unguis muscle is innervated by two excitatory motoneurons (30) and an inhibitory motoneuron (19,32), but the influence of the latter on the responsiveness of the muscle is slight. Maximal stimulation of the retractor unguis nerve at 0.2 Hz produced a series of twitch contractions of constant amplitude, which were maintained for many hours in good preparations. The test compounds were kept at -20° C. They were dissolved in locust saline on the day of the assay and tested at room temperature. The compounds were applied by pipette to a nerve-muscle preparation such that the contents of the perfusion bath were completely replaced by the test solution. Exposure to the test compound lasted 20 min. Because of the limited availability of some of the compounds, the preparation was not perfused during this period. However, the amplitude of the retractor unguis muscle twitch rarely changed by more than 5-10% over a 20 minute period. During application of the test solutions the stimulation frequency was raised to 0.6 Hz for brief periods to test for stimulus frequency-dependent effects on twitch amplitude (31,37). Dose-inhibition data were obtained by testing the effects, on single retractor unguis muscle preparations, of a range of concentrations of the test compounds. Each concentration of the respective samples was tested at least thee times, and each compound was assayed usually over a 100-fold concentration range (a total of 7-10 concentrations). The standard deviations for twitch inhibition for any given concentration of a toxin rarely exceed 10%. Those compounds for which the deviation was greater than this are identified in Tables 1-7. There was some variation in the potency of PhTX-343 and the test compounds between nerve-muscle preparations. In order to compensate for this, the following procedure was adopted: PhTX-343 was assayed at a variety of concentrations on eight retractor unguis nerve-muscle preparations to give a cumulative dose-inhibition relationship for this toxin. The concentration of PhTX-343 which reduced the twitch contraction by 50% (IC50) was then determined by fitting a curve to the data using the following equation: [formula] where: [T]= toxin concentration, I= % inhibition, Imax =maximum inhibition= 100% and n' represents the Hill slope coefficient. […] The ratio of the actual reduction in twitch amplitude obtained with this single concentration of PhTX-343 and the 50% reduction that was anticipated from the cumulative dose-inhibition relationship for this toxin, was then used as a factor to normalize the data for the test compound. […]

locust muscle QUIS-R = assay: Voltage dependence of antagonism of locust muscle QUIS-R; settings: block relieved above about -100 mV
Excerpt: PhTX-343 binds to the QUIS-R channel, possible at a site located within its selectivity filter (35,36). Other studies in our laboratories have shown that antagonism of locust muscle QUIS-R by PhTX-343 and compound 13, the diiodo analogue, is voltage-dependent, as one might expect for open channel blockers carrying a net positive charge. […] Cation-selective membrane channels are generally envisaged as aqueous pores lined by fixed negative charges. In the case of the amphibian nicotinic acetylcholine receptor the latter are thought to be concentrated in three clusters in the vicinity of the selectively filter (41). […] The relative disposition and number of protonated groups on the toxin seems to be important in determining potency, which appears to be maximized for a given number of protonated groups when these have a constant spacing of three methylenes on their equivalents.

[2] = biological target: NMDA receptors of rat brain; assay: Inhibition of glutamate-induced [3H]MK-801 binding to synaptic membranes (filtration assay); settings: read-out: EC50 (the concentration that inhibits 50% of binding) of [3H]MK-801
Excerpt: Binding PhTX-433 to NMDA Receptor. The NMDA receptor is identified by its high affinity for the compound (+)-5-methyl-10,11-dihydro-5H-dibenzo[a,d]cyclohepten-5,10-imine maleate (MK-801). Th is compound is an anticonvulsant introduced by Merck Sharp & Dohme Co. and is a potent non-competitive antagonist of the NMDA receptor. Binding of [^3 H]MK-801 t o synaptic membranes from rat brain after thorough washing is extremely poor. However, the binding (measured by a filtration assay) is potentiated by glutamate in a dose-dependent manner and reaches maximal potentiation at 10 μM glutamate (26). The increase in binding of [^3 H]MK-801 resulting from addition of glutamate has been used as an index of NMDA recep tor binding.

[3] = tested on: postjunctional, quisqualate-sensitive glutamate receptors; assay: Response of the retractor unguis muscle to bath-applied L-glutamate; parameters: species or system Schistocerca gregaria
[4] = Table 4, terminal amino group modifications, * SD < 20%, read-out: IC50
[5] = Table 4, relative to PhTX-343 = 1.0
[6] = Table 5, modifications to more than one region, read-out: IC50
[7] = Table 7, mono-acyl spermine analogues, read-out: IC50
[8] = Table 7, mono-acyl spermine analogues, relative to PhTX-343

## CCCC(=O)N[C@@H](Cc1ccc(O)cc1)C(=O)NCCCNCCCCNCCCN [Compound 1, PhTX-343]
[1]
  potency compared with natural PhTX-433 (in words): somewhat less active
  effect on the neurally-evoked twitch contraction (in words): influenced the twitch contraction in the same qualitative fashion as PhTX-433
[1]; PhTX-433 = 100%
  physiological activity relative to that of PhTX-433, by locust muscle twitch inhibition concentration: 80%
[1]; cumulative dose-inhibition on eight nerve-muscle preparations, read-out: concentration which reduced the twitch contraction by 50% (IC50)
  IC50: 23 µM
Locust muscle QUIS-R
  voltage dependence of antagonism: voltage-dependent

## CCCC(=O)N[C@@H](Cc1ccc(O)cc1)C(=O)NCCCCNCCCNCCCN [Compound 2, PhTX-433]
[1]
  effect on the neurally-evoked twitch contraction (in words): abolished the twitch
[2]
  EC50: 25 µM
[3]
  effect on the response of the muscle to L-glutamate: reduced the response of the retractor unguis muscle to L-glutamate

## CCCC(=O)N[C@@H](Cc1cc(I)c(O)c(I)c1)C(=O)NCCCNCCCCNCCCN [Compound 13]
[1]
  increase in potency compared with PhTX-343: 4.5 fold
Locust muscle QUIS-R
  voltage dependence of antagonism: voltage-dependent

## CCCC(=O)N[C@@H](Cc1ccc(O)cc1)C(=O)NCCCNCCCCNCCCNC(=O)[C@@H](N)CCCNC(=N)N [drawing 62]
[1]; [4]
  IC50: 6.3 µM
[1]; [5]
  Relative Potency: 3.7

## CCCC(=O)N[C@@H](Cc1ccc(O)cc1)C(=O)NCCCNCCCCNCCCNC(=O)C(N)CCCCNC(=O)C(N)CCCCN (some centres unmarked) [drawing 63]
[1]; [4]
  IC50: 11 µM
[1]; [5]
  Relative Potency: 2.1

## CCCC(=O)N[C@@H](Cc1cc(I)c(O)c(I)c1)C(=O)NCCCNCCCCNCCCNC(=O)[C@@H](N)CCCCN [drawing 65]
[1]; [6]
  IC50: 1.7 µM
[1]; Table 5, relative to PhTX-343
  Relative Potency: 14

## CCCC(=O)N[C@@H](Cc1cc(I)c(O)c(I)c1)C(=O)NCCCNCCCCNCCCNC(=O)[C@@H](N)CCCNC(=N)N [drawing 66]
[1]; [6]
  IC50: 0.7 µM
[1]; Table 5, relative to PhTX-343
  Relative Potency: 33

## [N-]=[N+]=Nc1ccc(C(=O)N[C@@H](Cc2cc(I)c(O)c(I)c2)C(=O)NCCCNCCCCNCCCNC(=O)[C@@H](N)CCCCN)cc1 [drawing 68]
[1]; [6]
  IC50: 1.8 µM
[1]; Table 5, relative to PhTX-343
  Relative Potency: 13

## CCCCCCC(=O)NCCCNCCCCNCCCN [drawing 77]
[1]; [7]
  IC50: 100 µM
[1]; [8]
  Relative Potency: 0.2

## CCCCCCCCCC(=O)NCCCNCCCCNCCCN [drawing 78]
[1]; [7]
  IC50: 10 µM
[1]; [8]
  Relative Potency: 2.3

## CCCCCCCCCC(=O)NCCCNCCCCNCCCNC(=O)CCCCCCCCC [drawing 82]
[1]; Table 7, bis-acyl spermine analogues, read-out: IC50
  IC50: 23 µM
[1]; Table 7, bis-acyl spermine analogues, relative to PhTX-343
  Relative Potency: 1.0
